The text below walks through data of patent publication EP0371733A2, “Dopamine-beta-hydroxylase inhibitors” (SMITHKLINE BEECHAM CORPORATION, priority 1988, dated 1990).

For data set [1], the target named is T1, DBH (Homo sapiens, UniProt P09172).
T1 sequence (P09172 1-617): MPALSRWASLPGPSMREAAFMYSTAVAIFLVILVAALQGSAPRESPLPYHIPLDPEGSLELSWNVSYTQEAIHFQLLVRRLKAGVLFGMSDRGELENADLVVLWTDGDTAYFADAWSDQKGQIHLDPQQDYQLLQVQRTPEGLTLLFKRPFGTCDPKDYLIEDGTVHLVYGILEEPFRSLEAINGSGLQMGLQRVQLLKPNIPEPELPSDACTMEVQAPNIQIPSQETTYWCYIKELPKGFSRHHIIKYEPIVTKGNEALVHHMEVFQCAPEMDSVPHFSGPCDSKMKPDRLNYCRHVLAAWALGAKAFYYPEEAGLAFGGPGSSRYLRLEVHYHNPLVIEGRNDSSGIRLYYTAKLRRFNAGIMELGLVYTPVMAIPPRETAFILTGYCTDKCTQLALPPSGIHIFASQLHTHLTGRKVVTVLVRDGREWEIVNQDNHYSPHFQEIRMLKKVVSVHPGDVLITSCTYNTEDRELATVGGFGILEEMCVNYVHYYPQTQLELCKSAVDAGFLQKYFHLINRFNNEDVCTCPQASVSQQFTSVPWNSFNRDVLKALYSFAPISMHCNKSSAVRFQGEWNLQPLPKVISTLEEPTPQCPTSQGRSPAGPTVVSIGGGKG
The data set is described as follows: in vitro DBH inhibition, conversion of tyramine to octopamine in the presence of DBH. It is filed as biochemical. As to conditions: concentration at which DBH activity was halved; octopamine assayed by absorbence at 330 nm; read-out: DBH IC₅₀. The method, then:
Listed in Table I are compounds of the invention that were tested for in vitro DBH inhibition by a standard procedure for assaying conversion of tyramine to octopamine in the presence of DBH. J.J. Pisano, et al., Biochim. Biophys. Acta, 43, 566-568 (1960). Octopamine was assayed following sodium periodate oxidation to p-hydroxybenzaldehyde by measuring spectrophotometric absorbence at 330 nm. In Table I, inhibition is given in molar concentration of compound at which DBH activity was halved (IC₅₀). Fusaric acid, by this test has an IC₅₀ of 8 x 10⁻⁷M.

Data set [2] has as its system spontaneously hypertensive rats. The data set can be described thus: mean arterial blood pressure in spontaneously hypertensive rats. It is filed as in vivo. Particulars: 50 mg/kg intraperitoneally, vs vehicle-treated controls. The method, then: Further, spontaneously hypertensive rats were treated with 3-(3-fluorophenylmethyl)-2-thiazolidinethione at a dose of 50 mg/kg intraperitoneally, and mean arterial blood pressure was monitored for 250 minutes using indwelling cannulae in the tail arteries. […] The maximal blood pressure reduction was approximately 20 mmHg.

For data set [3] the following is noted: in vitro screen; Weiffen et al., 1967; cited from earlier work.
For data set [4] the following is noted: Teresawa et al., 1971; cited from earlier work.
Data set [5] concerns the target T1, DBH. As to conditions: Runti et al., 1980; cited from earlier work.

For the compound `Fc1cc(F)cc(CN2CCSC2=S)c1` [3-(3,5-Difluorophenylmethyl)-2-thiazolidinethione], in data set [1], the IC50 came to 13 ± 1 µM.
`Fc1cccc(CN2CCSC2=S)c1` [3-(3-Fluorophenylmethyl)-2-thiazolidinethione]: the IC50 in data set [1] was found to be 30 ± 3 µM. For the same compound, the “maximal blood pressure reduction” value in data set [2] (mean arterial blood pressure monitored for 250 minutes) is “approximately 20 mmHg”. In addition, the “time to significant blood pressure reductions following treatment” value in data set [2] is not above 30 min.
Consider `S=C1SCCN1Cc1ccccc1` [3-Phenylmethyl-2-thiazolidinethione], for which, in data set [3], the tuberculostatic activity result is “poor activity”. Also, the IC50 in data set [1] is 72 ± 13 µM.
With `S=C1SCCN1CCc1ccccc1` [3-phenethylthiazolidinethione, reference compound], the tuberculostatic activity result in data set [3] is “poor activity”.
For the compound `CCCCc1ccc(C(=O)O)nc1` [Fusaric acid], the toxic effects entry in data set [4] is reported as “hepatotoxic”.
For phenylpicolinic acid, in data set [5], the “inhibitory activity relative to fusaric acid” value is listed as “twice the inhibitory activity of fusaric acid”.
